Reference: patent US11214803B2, “Modulators of YAP1 expression” (Ionis Pharmaceuticals, Inc., priority 2019, dated 2022)
Strand notation (5' to 3'): a small letter for the sugar, then the base; units joined by * are phosphorothioate-linked, units joined directly phosphodiester-linked; [ ] holds rarer units or linkages, { } end groups; capitals alone tell only the bases. k = constrained ethyl (cEt); [5mC] = 5-methylcytosine; d = 2'-deoxy (DNA)

Test system: Yap1 mRNA
Assay: Antisense inhibition of human Yap1 in A-431 cells by cEt gapmers, single dose (Example 1, RTS4814)
Format: cell-based
Description: Modified oligonucleotides were designed to target a Yap1 nucleic acid and were tested for their effect on Yap1 mRNA level in vitro. The modified oligonucleotides were tested in a series of experiments that had similar culture conditions. Cultured A-431 cells at a density of 5,000 cells per well were treated using free uptake with 2,000 nM of modified oligonucleotide. After a treatment period of approximately 48 hours, RNA was isolated from the cells and Yap1 mRNA levels were measured by quantitative real-time RTPCR. Human primer probe set RTS4814 (forward sequence […], designated herein as SEQ ID NO.: 11; reverse sequence […], designated herein as SEQ ID NO.: 12; probe sequence […], designated herein as SEQ ID NO.: 13) was used to measure mRNA levels. Yap1 mRNA levels were normalized to total RNA content, as measured by RIBOGREEN®. Results are presented in the tables below as percent control of the amount of Yap1 mRNA relative to untreated control cells (% UTC). The modified oligonucleotides with percent control values marked with an asterisk (*) target the amplicon region of the primer probe set. Additional assays may be used to measure the potency and efficacy of the modified oligonucleotides targeting the amplicon region.
The newly designed modified oligonucleotides in the Tables below were designed as 3-10-3 cEt gapmers. The gapmers are 16 nucleosides in length, wherein the central gap segment comprises of ten 2′-deoxynucleosides and is flanked by wing segments on the 5′ direction and the 3′ direction comprising three nucleosides each. Each nucleoside in the 5′ wing segment and each nucleoside in the 3′ wing segment has a cEt sugar modification. The internucleoside linkages throughout each gapmer are phosphorothioate (P═S) linkages. All cytosine residues throughout each gapmer are 5-methylcytosines.
“Start site” indicates the 5′-most nucleoside to which the gapmer is targeted in the human gene sequence. “Stop site” indicates the 3′-most nucleoside to which the gapmer is targeted human gene sequence. […] Activity of the modified oligonucleotide may be defined in a different experiment.

[1] = Table 2, A-431 cells, free uptake, 2,000 nM, approximately 48 hours, RTS4814, Yap1 mRNA relative to untreated control cells
[2] = Table 1, A-431 cells, free uptake, 2,000 nM, approximately 48 hours, RTS4814, Yap1 mRNA relative to untreated control cells
[3] = A-431 cells, 5,000 cells per well, free uptake, 2,000 nM modified oligonucleotide, approx. 48 hours, RTS4814, normalized to RIBOGREEN, Table 3

Substance	YAP1 (% UTC) [1]	YAP1 (% UTC) [2]	also measured
715629 (antisense kG*kA*kG*d[5mC]*d[5mC]*dT*dA*d[5mC]*d[5mC]*dT*dG*dA*d[5mC]*kA*kT*kT) [Compound 715629]	112 % UTC	–	–
715566 (kT*kA*kG*dG*dA*dT*dA*dA*dA*dT*dG*dA*dA*kT*kT*kA; antisense) [Compound 715566]	94 % UTC	–	–
715628 (antisense kG*k[5mC]*k[5mC]*dT*dA*d[5mC]*d[5mC]*dT*dG*dA*d[5mC]*dA*dT*kT*kT*kT) [Compound 715628]	–	114 % UTC	–
715508 (antisense k[5mC]*kT*kG*dT*dG*d[5mC]*dT*dG*dG*dG*dA*dT*dT*kG*kA*kT) [Compound 715508]	–	24 % UTC	–
715577 (kG*k[5mC]*kA*dT*dT*d[5mC]*dA*d[5mC]*dA*dG*dA*dG*dT*kT*kA*kA; antisense) [Compound 715577]	–	21 % UTC	–
715450 (antisense kT*kT*kG*dT*dT*d[5mC]*dT*d[5mC]*dA*dA*dT*dT*d[5mC]*k[5mC]*kT*kG) [Compound 715450]	–	–	YAP1 (% UTC) [3]: 53 % UTC
715555 (kG*kT*kT*dA*dT*dT*d[5mC]*dA*dG*d[5mC]*dA*dG*d[5mC]*kT*kT*kA; antisense) [Compound 715555]	–	–	YAP1 (% UTC) [3]: 21 % UTC
715515 (kT*kA*kT*dG*dA*dG*dT*d[5mC]*dA*dA*d[5mC]*d[5mC]*dT*kG*k[5mC]*kA; antisense) [Compound 715515]	94 % UTC	–	–
715441 (antisense k[5mC]*kT*k[5mC]*dT*dG*dG*dT*dT*d[5mC]*dA*dT*dG*dG*k[5mC]*kA*kA) [Compound 715441]	–	–	YAP1 (% UTC) [3]: 57 % UTC
715410 (kA*kT*k[5mC]*dA*dG*dT*dA*d[5mC]*dT*dG*dG*d[5mC]*d[5mC]*kT*kG*kT; antisense) [Compound 715410]	61 % UTC	–	–
715420 (kG*kA*kT*dT*dT*dA*dA*dG*dA*dA*dG*dT*dA*kT*k[5mC]*kT; antisense) [Compound 715420]	–	–	YAP1 (% UTC) [3]: 107 % UTC
715401 (kG*kG*kT*d[5mC]*dT*d[5mC]*d[5mC]*dG*dA*dG*dT*d[5mC]*d[5mC]*k[5mC]*k[5mC]*kG; antisense) [Compound 715401]	84 % UTC	–	–
715583 (kG*kG*kG*d[5mC]*d[5mC]*dA*d[5mC]*dA*dA*dA*dA*dT*dA*kA*kA*kA; antisense) [Compound 715583]	–	164 % UTC	–
715432 (k[5mC]*kT*k[5mC]*d[5mC]*dA*dT*d[5mC]*d[5mC]*dT*dG*dA*dG*dT*k[5mC]*kA*kT; antisense) [Compound 715432]	–	–	YAP1 (% UTC) [3]: 65 % UTC
715589 (k[5mC]*k[5mC]*kA*dG*d[5mC]*dA*dG*d[5mC]*dT*dA*dA*d[5mC]*dA*kG*k[5mC]*kT; antisense) [Compound 715589]	–	107 % UTC	–
715513 (kG*k[5mC]*kG*dG*dA*dG*dG*d[5mC]*dG*d[5mC]*dG*d[5mC]*dG*k[5mC]*kA*kT; antisense) [Compound 715513]	–	–	YAP1 (% UTC) [3]: 125 % UTC
715626 (antisense kA*k[5mC]*k[5mC]*dT*dG*dA*d[5mC]*dA*dT*dT*dT*dT*dG*kG*kA*kG) [Compound 715626]	64 % UTC	–	–
715530 (kA*kA*k[5mC]*d[5mC]*dT*dG*dG*dT*dT*dT*dG*dT*dT*kT*k[5mC]*k[5mC]; antisense) [Compound 715530]	61 % UTC	–	–
715608 (antisense kA*kA*kT*dT*dG*dT*dA*dT*d[5mC]*d[5mC]*dA*dG*dA*k[5mC]*kA*kT) [Compound 715608]	100 % UTC	–	–
715578 (kT*kG*kG*d[5mC]*dA*dT*dT*d[5mC]*dA*d[5mC]*dA*dG*dA*kG*kT*kT; antisense) [Compound 715578]	50 % UTC	–	–
715411 (kG*k[5mC]*kA*dT*d[5mC]*dA*dG*dT*dA*d[5mC]*dT*dG*dG*k[5mC]*k[5mC]*kT; antisense) [Compound 715411]	–	–	YAP1 (% UTC) [3]: 94 % UTC
715581 (kA*kA*kG*d[5mC]*d[5mC]*dT*dG*dT*d[5mC]*dT*dG*dG*dA*kA*kT*kA; antisense) [Compound 715581]	106 % UTC	–	–
715598 (antisense k[5mC]*k[5mC]*k[5mC]*dA*dA*dG*d[5mC]*dT*dA*d[5mC]*d[5mC]*d[5mC]*dA*kA*kG*kA) [Compound 715598]	–	103 % UTC	–
715549 (kG*kA*kA*dG*dT*dT*dG*dT*dT*dG*dA*d[5mC]*d[5mC]*kA*kA*k[5mC]; antisense) [Compound 715549]	–	–	YAP1 (% UTC) [3]: 66 % UTC

Substance	YAP1 (% UTC) [1]	YAP1 (% UTC) [2]	also measured
715522 (kA*k[5mC]*kT*d[5mC]*dT*dT*d[5mC]*dT*dT*dT*d[5mC]*d[5mC]*dA*k[5mC]*kT*k[5mC]; antisense) [Compound 715522]	–	–	YAP1 (% UTC) [3]: 87 % UTC
715415 (k[5mC]*kG*kA*dA*d[5mC]*dA*dT*dG*d[5mC]*dT*dG*dT*dG*kG*kA*kG; antisense) [Compound 715415]	–	24 % UTC	–
715517 (kG*kG*k[5mC]*d[5mC]*dT*dA*dT*dG*dA*dG*dT*d[5mC]*dA*kA*k[5mC]*k[5mC]; antisense) [Compound 715517]	–	109 % UTC	–
715604 (antisense kT*kA*kG*d[5mC]*dA*d[5mC]*dA*dG*dA*dA*dT*dT*d[5mC]*k[5mC]*k[5mC]*kA) [Compound 715604]	–	107 % UTC	–
715606 (antisense kA*k[5mC]*k[5mC]*dA*dT*dA*dG*d[5mC]*dA*d[5mC]*dA*dG*dA*kA*kT*kT) [Compound 715606]	–	–	YAP1 (% UTC) [3]: 88 % UTC
715506 (antisense kA*kA*kA*dT*dT*dG*dG*dT*dT*dT*dA*dT*dT*kG*kT*kA) [Compound 715506]	112 % UTC	–	–
715595 (antisense kT*k[5mC]*kA*dT*dG*dG*d[5mC]*dT*dG*dA*dA*dA*dT*kG*kA*kA) [Compound 715595]	–	104 % UTC	–
715622 (antisense kA*kG*kT*dA*dA*dA*dA*dA*dA*dT*dA*dA*dG*kA*k[5mC]*kG) [Compound 715622]	–	137 % UTC	–
715550 (kA*kG*kG*dA*dA*dG*dT*dT*dG*dT*dT*dG*dA*k[5mC]*k[5mC]*kA; antisense) [Compound 715550]	–	70 % UTC	–
715568 (kA*kA*kG*dG*dT*dA*dG*dG*dA*dT*dA*dA*dA*kT*kG*kA; antisense) [Compound 715568]	–	116 % UTC	–
715504 (antisense kT*kG*kG*dT*dT*dT*dA*dT*dT*dG*dT*dA*dA*kA*kA*kG) [Compound 715504]	–	–	YAP1 (% UTC) [3]: 70 % UTC
715482 (antisense k[5mC]*kT*kT*dT*dG*dG*dA*dA*dA*d[5mC]*d[5mC]*dA*dT*kT*kA*kT) [Compound 715482]	58 % UTC	–	–
715541 (k[5mC]*kT*kT*dG*dA*dA*dG*dA*dA*d[5mC]*dT*dA*dT*kT*kT*k[5mC]; antisense) [Compound 715541]	–	105 % UTC	–
715557 (kG*kG*kA*dA*dG*dT*dT*dA*dT*dT*d[5mC]*dA*dG*k[5mC]*kA*kG; antisense) [Compound 715557]	46 % UTC	–	–
715505 (antisense kA*kT*kT*dG*dG*dT*dT*dT*dA*dT*dT*dG*dT*kA*kA*kA) [Compound 715505]	–	84 % UTC	–
715519 (kT*kT*k[5mC]*d[5mC]*dA*d[5mC]*dT*d[5mC]*dA*dA*dG*dT*dT*kA*k[5mC]*kA; antisense) [Compound 715519]	–	–	YAP1 (% UTC) [3]: 96 % UTC
715462 (antisense kT*k[5mC]*kT*d[5mC]*dA*dT*d[5mC]*dT*d[5mC]*dG*dA*dG*dA*kG*kT*kG) [Compound 715462]	–	–	YAP1 (% UTC) [3]: 94 % UTC
715416 (k[5mC]*kT*k[5mC]*dG*dA*dA*d[5mC]*dA*dT*dG*d[5mC]*dT*dG*kT*kG*kG; antisense) [Compound 715416]	53 % UTC	–	–
715523 (kA*kT*k[5mC]*dA*dG*dT*dA*d[5mC]*dT*dG*dG*d[5mC]*d[5mC]*kT*kA*kT; antisense) [Compound 715523]	–	32 % UTC	–
715592 (kT*kT*k[5mC]*dT*dT*dT*dG*dG*d[5mC]*dA*dG*dA*dG*kA*kT*kA; antisense) [Compound 715592]	–	89 % UTC	–
715542 (kT*kA*k[5mC]*dT*dT*dG*dA*dA*dG*dA*dA*d[5mC]*dT*kA*kT*kT; antisense) [Compound 715542]	120 % UTC	–	–
715594 (antisense kA*kT*kA*dT*dT*dT*d[5mC]*dT*dT*dT*dG*dG*d[5mC]*kA*kG*kA) [Compound 715594]	–	–	YAP1 (% UTC) [3]: 39 % UTC
715493 (antisense kG*kT*kG*d[5mC]*dT*dA*dG*d[5mC]*dT*dG*dG*dT*dG*k[5mC]*k[5mC]*kA) [Compound 715493]	–	62 % UTC	–
